Experimental data: PMC12057046, “Elucidation of short linear motif-based interactions of the MIT and rhodanese domains of the ubiquitin-specific protease 8” (Biology Direct, 2025)

target: T1, USP8 Rhod domain (Homo sapiens, UniProt P40818); experiment: Peptide-phage display-based deep mutational scanning (DMS), USP8 Rhod domain; type: binding; details: ProP-PD DMS, bait USP8_Rhodanese__P40818_174_317; pair wild-type GMERVLGGLSSPLRLL (wt_00013) vs mutant; positive where wild-type fraction is higher, negative where mutant fraction is higher
T1 construct: USP8 Rhod (174–317) (UniProt: P40818); GST (cleaved yes); made in house; host or cells: Escherichia coli BL21-Gold (DE3)
T1 sequence (P40818 174-317): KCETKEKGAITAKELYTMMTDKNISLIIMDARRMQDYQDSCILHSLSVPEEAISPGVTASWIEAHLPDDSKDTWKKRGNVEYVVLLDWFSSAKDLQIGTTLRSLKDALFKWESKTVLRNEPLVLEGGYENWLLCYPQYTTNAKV
Description: Four rounds of phage selections were carried out using the second generation human disorderome library or the constructed deep mutational scanning library. At least three individual replicates were used for each bait protein. 10 µg of GST-tagged proteins or GST control (diluted in PBS from the stock of proteins kept in the purification elution buffer) were immobilized in 100 µL PBS on a 96-well MaxiSorp (Nunc) plate overnight at 4 °C. The plates were incubated with blocking buffer (with 0.5% BSA in PBS) for 1 h at 4 °C followed by washing with 0.05% Tween 20 in PBS four times. The naïve phage library (10^11 CFU) was diluted in 1/5th volume PEG/NaCl (20% PEG-8000, 0.4 M NaCl) and 1X PBS, incubated on ice for 10 min and centrifuged at 10,000 [drawing 3] g for 10 min. The pellet was resuspended in the volume of PBS (100 µL/ well). The GST-coated control plate was incubated with 100 µL library per well in PBS for 1 h at 4 °C to remove non-specific binders. The supernatant was transferred to the target wells and incubated for 2 h at 4 °C. The wells were washed five times with 0.05% Tween 20 in PBS and the bound phages were eluted with 100 µL per well log-phase E. coli OmniMAX by incubating at 37° C while shaking. After 30 min, M13KO7 helper phages were added and incubated for an additional 45 min. The bacterial cultures were transferred to 1 mL 2YT supplemented with 100 µg/mL carbenicillin, 30 µg/mL kanamycin and 0.3 mM IPTG and grew overnight at 37 °C while shaking. The following day the cultures were centrifuged for 10 min at 2,000 [drawing 4] g, 4 °C. 1/10th volume of 10 [drawing 5] PBS was added to adjust the pH and heated at 65 °C for 10 min. The phage pools from each round were used as in-phages for the next round of selections.
The samples were prepared for NGS as previously described. […] The PCR products were normalized with 25 µL Mag-bind Total Pure NGS beads (Omega Biotek) and 10 µL of each eluted sample (Qiagen Elution Buffer) was pooled and cleaned-up with a PCR purification kit (Qiagen). The PCR product was confirmed by 2% agarose electrophoresis and the band was extracted with QIAquick Gel extraction Kit (Qiagen) and eluted with 30 µL TE buffer. The dsDNA was quantified using QuantiT PicoGreen dsDNA Assay Kit (Thermo Fisher) and sent for NGS (Illumina MiSeq v3, 1 × 150 bp read setup, 20% PhiX, NGI SciLifeLab facility, Sweden). The NGS data were demultiplexed, adapter regions were trimmed and sequences with an average quality of at least 20 were translated to peptide sequences. The NGS data were analysed using custom Python scripts. The total read NGS counts for each selection experiment of each peptide sequence were compiled and annotated in PepTools (https://slim.icr.ac.uk/tools/peptools/). Since ProP-PD is in essence a competition assay, the possibility of the input phage library influencing the selection outcome was explored. […] Pearson correlation coefficient and p-value were calculated using Python’s SciPy library.

Compared with GMERVLGGFSSPLRLL, GMERVLGGGSSPLRLL is lower in hit_pair_ratio: 53.66 for the first, 20.85 for the second.

First: GMERVLGGHSSPLRLL
Second: GMERVLGGKSSPLRLL
The hit_pair_ratio of the first is higher: 49.95 for the first, 20.99 for the second.

Going from GMERVLGGLASPLRLL to GMERVLGGLESPLRLL, the hit_pair_ratio falls from 321.97 to 131.67.

Compared with GMERVLGGLHSPLRLL, GMERVLGGLISPLRLL is higher in hit_pair_ratio: 1.07 for the first, 321.97 for the second.

Compared with GMERVLGGLPSPLRLL, GMERVLGGLSAPLRLL is higher in hit_pair_ratio: 131.67 for the first, 160.99 for the second.

First: GMERVLGGLSDPLRLL
Second: GMERVLGGLSEPLRLL
The hit_pair_ratio of the first is lower: -19.71 for the first, 15.92 for the second.

Going from GMERVLGGLSFPLRLL to GMERVLGGLSNPLRLL, the hit_pair_ratio falls from 80.49 to -9.56.

GMERVLGGLSRPLRLL and GMERVLGGLSSLLRLL are the same in hit_pair_ratio: 321.97 for the first, 321.97 for the second.

Going from GMERVLGGLSSPARLL to GMERVLGGLSSPDRLL, the hit_pair_ratio rises from 46.00 to 54.66.

With GMERVLGGLSSPERLL the hit_pair_ratio was 4.36.

same assay, conditions: ProP-PD pairs, bait USP8_Rhodanese__P40818_174_317; wild-type/mutant pair, wild type KIAA1614 569-584 GMERVLGGLSSPLRLL (wt_00013)

Going from GLERVLGGLSSPLRLL to GMARVLGGLSSPLRLL, the hit_pair_ratio rises from 1.84 to 8.89.

Compared with GMDRVLGGLSSPLRLL, GMEAVLGGLSSPLRLL is higher in hit_pair_ratio: -1.75 for the first, 131.67 for the second.

First: GMELVLGGLSSPLRLL
Second: GMENVLGGLSSPLRLL
The hit_pair_ratio of the first is higher: 160.99 for the first, 107.32 for the second.

Compared with GMERALGGLSSPLRLL, GMERDLGGLSSPLRLL is lower in hit_pair_ratio: 4.69 for the first, -11.89 for the second.

Compared with GMERELGGLSSPLRLL, GMERFLGGLSSPLRLL is higher in hit_pair_ratio: -10.69 for the first, -9.37 for the second.

Compared with GMERGLGGLSSPLRLL, GMERHLGGLSSPLRLL is lower in hit_pair_ratio: -1.02 for the first, -4.18 for the second.

Going from GMERILGGLSSPLRLL to GMERKLGGLSSPLRLL, the hit_pair_ratio rises from 20.85 to 30.82.

Going from GMERLLGGLSSPLRLL to GMERMLGGLSSPLRLL, the hit_pair_ratio falls from 5.91 to -1.32.

Compared with GMERNLGGLSSPLRLL, GMERPLGGLSSPLRLL is higher in hit_pair_ratio: -2.85 for the first, 1.07 for the second.

First: GMERQLGGLSSPLRLL
Second: GMERRLGGLSSPLRLL
The hit_pair_ratio of the first is lower: -6.89 for the first, 16.75 for the second.

First: GMERSLGGLSSPLRLL
Second: GMERTLGGLSSPLRLL
The hit_pair_ratio of the first is higher: 12.88 for the first, -5.12 for the second.

First: GMERVFGGLSSPLRLL
Second: GMERVGGGLSSPLRLL
The hit_pair_ratio of the first is higher: 321.97 for the first, 29.56 for the second.

First: GMERVIGGLSSPLRLL
Second: GMERVLAGLSSPLRLL
The hit_pair_ratio of the first is lower: -3.21 for the first, -1.35 for the second.

Going from GMERVLDGLSSPLRLL to GMERVLEGLSSPLRLL, the hit_pair_ratio rises from -20.23 to -2.19.

First: GMERVLFGLSSPLRLL
Second: GMERVLGDLSSPLRLL
The hit_pair_ratio of the first is lower: -3.55 for the first, 321.97 for the second.

Compared with GMERVLGGASSPLRLL, GMERVLGGDSSPLRLL is lower in hit_pair_ratio: 1.62 for the first, -19.26 for the second.

Going from GMERVLGGESSPLRLL to GMERVLGGISSPLRLL, the hit_pair_ratio rises from -80.43 to 4.20.

same assay, conditions: bait USP8_Rhodanese__P40818_174_317; wild-type/mutant pair ratio of averaged fractions; negative values where mutant fraction is higher

First: GLALWEAKMKSLAERA
Second: GLALWEAKMKTLAERA
The hit_pair_ratio of the first is lower: 1.39 for the first, 33.74 for the second.

Going from GLALWEAKMKVLAERA to GLALWEAKMKWLAERA, the hit_pair_ratio falls from 553.50 to 221.40.

First: GLALWEAKMKYLAERA
Second: GLALWEAKMLQLAERA
The hit_pair_ratio of the first is higher: 55.35 for the first, 26.20 for the second.

Compared with GLALWEAKMMQLAERA, GLALWEAKMPQLAERA is higher in hit_pair_ratio: 417.62 for the first, 553.50 for the second.

Compared with GLALWEAKMQQLAERA, GLALWEAKMRQLAERA is lower in hit_pair_ratio: 31.63 for the first, 1.94 for the second.

Compared with GLALWEAKMSQLAERA, GLALWEAKMTQLAERA is higher in hit_pair_ratio: -7.21 for the first, 29.92 for the second.

Going from GLALWEAKMVQLAERA to GLALWEAKMWQLAERA, the hit_pair_ratio rises from -1.44 to 2.24.

For GLALWEAKMYQLAERA, the hit_pair_ratio was 31.05.

same assay, conditions: wild type/mutant pair; bait USP8_Rhodanese__P40818_174_317; vs hit_library_peptide_wt GLALWEAKMKQLAERA; negative where mutant fraction exceeds wild type; ProP-PD pairs (sheet S7.B)

Compared with GLALWEAKMNQLAERA, GLALWEAKNKQLAERA is higher in hit_pair_ratio: -19.47 for the first, 276.75 for the second.

Compared with GLALWEAKPKQLAERA, GLALWEAKQKQLAERA is lower in hit_pair_ratio: 195.90 for the first, 151.61 for the second.

Compared with GLALWEAKRKQLAERA, GLALWEAKSKQLAERA is lower in hit_pair_ratio: 44.28 for the first, -2.49 for the second.

First: GLALWEAKTKQLAERA
Second: GLALWEAKVKQLAERA
The hit_pair_ratio of the first is lower: 26.45 for the first, 369.00 for the second.

Compared with GLALWEAKWKQLAERA, GLALWEAKYKQLAERA is higher in hit_pair_ratio: 2.15 for the first, 123.00 for the second.

Going from GLALWEANMKQLAERA to GLALWEAPMKQLAERA, the hit_pair_ratio rises from 208.81 to 276.75.

First: GLALWEAQMKQLAERA
Second: GLALWEEKMKQLAERA
The hit_pair_ratio of the first is higher: 1107.01 for the first, 553.50 for the second.

First: GLALWEFKMKQLAERA
Second: GLALWEGKMKQLAERA
The hit_pair_ratio of the first is higher: 1107.01 for the first, 68.11 for the second.

Compared with GLALWEHKMKQLAERA, GLALWEIKMKQLAERA is higher in hit_pair_ratio: 2.05 for the first, 123.00 for the second.

Compared with GLALWELKMKQLAERA, GLALWEMKMKQLAERA is lower in hit_pair_ratio: 1107.01 for the first, 20.50 for the second.

Going from GLALWENKMKQLAERA to GLALWEPKMKQLAERA, the hit_pair_ratio rises from 24.65 to 87.84.

First: GLALWEQKMKQLAERA
Second: GLALWERKMKQLAERA
The hit_pair_ratio of the first is lower: -1.30 for the first, 1107.01 for the second.

Going from GLALWESKMKQLAERA to GLALWETKMKQLAERA, the hit_pair_ratio falls from 208.81 to 11.88.

Going from GLALWEVKMKQLAERA to GLALWEWKMKQLAERA, the hit_pair_ratio falls from 92.62 to 23.98.

Going from GLALWEYKMKQLAERA to GLALWFAKMKQLAERA, the hit_pair_ratio rises from 208.81 to 553.50.

First: GLALWGAKMKQLAERA
Second: GLALWHAKMKQLAERA
The hit_pair_ratio of the first is lower: 24.44 for the first, 123.00 for the second.

Going from GLALWSAKMKQLAERA to GLALWVAKMKQLAERA, the hit_pair_ratio rises from 21.71 to 417.62.

Compared with GLALWYAKMKQLAERA, GLAMWEAKMKQLAERA is lower in hit_pair_ratio: 417.62 for the first, -5.97 for the second.

Compared with GLANWEAKMKQLAERA, GLAPWEAKMKQLAERA is higher in hit_pair_ratio: 4.24 for the first, 1107.01 for the second.

First: GLAQWEAKMKQLAERA
Second: GLARWEAKMKQLAERA
The hit_pair_ratio of the first is lower: 10.90 for the first, 12.82 for the second.

Going from GLASWEAKMKQLAERA to GLATWEAKMKQLAERA, the hit_pair_ratio falls from 101.08 to 8.05.

Compared with GLAVWEAKMKQLAERA, GLDLWEAKMKQLAERA is lower in hit_pair_ratio: -2.03 for the first, -4.35 for the second.

First: GLELWEAKMKQLAERA
Second: GLFLWEAKMKQLAERA
The hit_pair_ratio of the first is lower: -13.35 for the first, 1107.01 for the second.

Compared with GLGLWEAKMKQLAERA, GLHLWEAKMKQLAERA is higher in hit_pair_ratio: 123.66 for the first, 553.50 for the second.

First: GLILWEAKMKQLAERA
Second: GLKLWEAKMKQLAERA
The hit_pair_ratio of the first is higher: 1107.01 for the first, 369.00 for the second.

Going from GLLLWEAKMKQLAERA to GLMLWEAKMKQLAERA, the hit_pair_ratio falls from 1107.01 to 20.89.

Compared with GLPLWEAKMKQLAERA, GLQLWEAKMKQLAERA is lower in hit_pair_ratio: 10.62 for the first, -1.71 for the second.

First: GLSLWEAKMKQLAERA
Second: GLTLWEAKMKQLAERA
The hit_pair_ratio of the first is lower: 33.04 for the first, 92.62 for the second.

Compared with GLVLWEAKMKQLAERA, GLWLWEAKMKQLAERA is higher in hit_pair_ratio: 27.71 for the first, 49.74 for the second.

Compared with GLYLWEAKMKQLAERA, GMALWEAKMKQLAERA is lower in hit_pair_ratio: 27.03 for the first, 7.96 for the second.
